Experiments:
[1] = molecular target: T1, Angiotensin II receptor (Oryctolagus cuniculus, UniProt P34976); experiment: AII receptor antagonistic activity: inhibition of angiotensin II induced contraction of isolated rabbit thoracic aorta; assay type: cell-based; settings: isolated rabbit thoracic aorta contracted by angiotensin II; Van Rossum method; values shown in parenthesis
T1 construct: Rabbit thoracic aorta is isolated, contracted by angiotensin II; from tissue; host or cells: rabbit thoracic aorta
T1 sequence (P34976 1-359): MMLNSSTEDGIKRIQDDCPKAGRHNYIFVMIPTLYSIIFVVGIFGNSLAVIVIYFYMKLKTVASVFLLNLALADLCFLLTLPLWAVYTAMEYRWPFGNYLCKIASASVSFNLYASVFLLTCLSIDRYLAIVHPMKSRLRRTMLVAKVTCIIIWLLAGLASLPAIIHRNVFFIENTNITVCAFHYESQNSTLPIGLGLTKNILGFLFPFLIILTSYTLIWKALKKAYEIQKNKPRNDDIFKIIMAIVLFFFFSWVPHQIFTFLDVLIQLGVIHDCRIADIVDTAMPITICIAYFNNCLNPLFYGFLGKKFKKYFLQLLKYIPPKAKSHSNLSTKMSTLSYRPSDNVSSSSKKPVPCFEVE
Experimental: [AII receptor antagonistic activity]
Angiotensin II receptor activity experiments are carried out according to P. C. Wong et al. (Hypertension 15, 823 (1990)).
Rabbit thoracic aorta is isolated, contracted by angiotensin II. The inhibition of contraction by the compound of formula (1) is expressed as pA2 from dose-response curve (Schild, Brit. J. Pharmacol. 14, 48 (1959)) or expressed as pD2 ' according to the method of J. M. Van Rossum (Arch. Intern. Pharmacodyn., 143, 229 (1963)).

[2] = system: pressor responses to AII; experiment: Inhibition of AII induced blood pressure increase in rats; assay type: in vivo; settings: Rattus norvegicus, po, test compound 0.3 mg/kg orally, AII 30 ng/kg i.v., pressor responses measured at set times
Experimental: [Inhibition of All induced Blood Pressure Increase]
Carotid artery and left femoral vein in rats were cannulated. Next day, the carotid catheter was connected to a pressure transducer for monitoring arterial blood pressure. After the measurement of AII (30 ng/kg, i.v.) pressor responses, test compounds (0.3 mg/kg) were administered orally.
Thereafter, the pressor responses to AII at set times were measured and the inhibition percent was calculated according to the comparison of the pressor responses.

- pD2' [1]: 8.18
SMILES: CCCc1nc2c(n1Cc1ccc(-c3ccccc3-c3nnn[nH]3)cc1)/C(=C/C(=O)OC(C)OC(=O)OC(C)C)CCCC2 (centres unmarked) [Compound 29, 2-Propyl-8-(1-isopropoxycarbonyloxy)ethoxycarbonylmethylidene-1-[(2'-(1H-tetrazole-5-yl)biphenyl-4-yl)methyl]-4,5,6,7-tetrahydro-cycloheptimidazole]
- inhibition in vivo at 0.3 mg/kg [2]: ≥ 70%

Reference: patent US5527815A, “Carboxymethylidenecycloheptimidazole derivatives, method of manufacturing the same and therapeutic agents containing these compounds” (Kotobuki Seiyaku Co., Ltd., priority 1993, dated 1996)
